Our source for the relative viability values is the supplement of paper PMC10307832.

Test in all cases: relative viability (nuclei count vs DMSO), 5 days (fraction); higher = more cells survive
Compound in the experiment “Trametinib + Decitabine”: CC(=O)Nc1cccc(-n2c(=O)n(C3CC3)c(=O)c3c(Nc4ccc(I)cc4F)n(C)c(=O)c(C)c32)c1 [Trametinib] + Nc1ncn([C@H]2C[C@H](O)[C@@H](CO)O2)c(=O)n1 [Decitabine] (partner 2 µM)
The method, boiled down: (§1)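 Relative viability equals treated-well nuclei counts divided by vehicle-well nuclei counts. Counts came from 4× images of lung cancer cell lines grown in 1536-well plates for 5 days after pin-tool dosing on the day after seeding. Dosing used one drug alone or a fixed anchor-drug dose plus five library-drug doses (not always all listed) in √10 steps, and values are medians of duplicate plates.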

Compound in experiment [1]: CN1C=C(C2=CC=CC=C21)/C=C\3/C4=C(C=CC=N4)NC3=O + CS(=O)(=O)CCNCc1ccc(-c2ccc3ncnc(Nc4ccc(OCc5cccc(F)c5)c(Cl)c4)c3c2)o1 [Lapatinib] (partner 2 µM)
The method, boiled down: as §1

Compound in the experiment “Trametinib + Foretinib”: CC(=O)Nc1cccc(-n2c(=O)n(C3CC3)c(=O)c3c(Nc4ccc(I)cc4F)n(C)c(=O)c(C)c32)c1 [Trametinib] + COc1cc2c(Oc3ccc(NC(=O)C4(C(=O)Nc5ccc(F)cc5)CC4)cc3F)ccnc2cc1OCCCN1CCOCC1 [Foretinib] (partner 0.25 µM)
The procedure, abridged:
as §1

Take LCLC-97TM1: the relative viability worked out at 0.275 with Trametinib + Decitabine (first compound 0.0025 µM); 0.287 with Trametinib + Decitabine (first compound 0.007906 µM); 0.206 in the experiment with Trametinib + Decitabine (first compound 0.025 µM); 0.203 with Trametinib + Decitabine (first compound 0.07906 µM); 0.169 in the experiment with Trametinib + Decitabine (first compound 0.25 µM); 0.696 in experiment [1] (first compound 0.02 µM). The relative viability was determined as 0.882 in experiment [1] (first compound 0.6325 µM); 0.948 in experiment [1] (first compound 2 µM); 0.817 in the experiment with Trametinib + Foretinib (first compound 0.0025 µM); 0.666 with Trametinib + Foretinib (first compound 0.007906 µM); 0.459 in the experiment with Trametinib + Foretinib (first compound 0.025 µM); 0.306 with Trametinib + Foretinib (first compound 0.07906 µM). For the same cell line, in the experiment with Trametinib + Foretinib (first compound 0.25 µM), the relative viability was found to be 0.301.
As for LCLC-103H, the relative viability with Trametinib + Decitabine (first compound 0.0025 µM) was determined as 0.754; with Trametinib + Decitabine (first compound 0.007906 µM) it was 0.68; with Trametinib + Decitabine (first compound 0.025 µM), 0.692; in the experiment with Trametinib + Decitabine (first compound 0.07906 µM), 0.689; with Trametinib + Decitabine (first compound 0.25 µM) it was 0.596; in the experiment with Trametinib + Foretinib (first compound 0.0025 µM) it was 0.745. For the same cell line, the relative viability is 0.637 in the experiment with Trametinib + Foretinib (first compound 0.007906 µM), 0.537 in the experiment with Trametinib + Foretinib (first compound 0.025 µM), 0.621 with Trametinib + Foretinib (first compound 0.07906 µM) and 0.429 in the experiment with Trametinib + Foretinib (first compound 0.25 µM).
Consider LK-2, for which the relative viability worked out at 0.309 in the experiment with Trametinib + Decitabine (first compound 0.0025 µM); 0.259 in the experiment with Trametinib + Decitabine (first compound 0.007906 µM); 0.181 with Trametinib + Decitabine (first compound 0.025 µM); 0.18 in the experiment with Trametinib + Decitabine (first compound 0.07906 µM); 0.147 in the experiment with Trametinib + Decitabine (first compound 0.25 µM); 0.568 in experiment [1] (first compound 0.06325 µM). The relative viability in experiment [1] (first compound 0.6325 µM) amounted to 0.756; in experiment [1] (first compound 2 µM) it was 1.03; with Trametinib + Foretinib (first compound 0.0025 µM), 1.07; with Trametinib + Foretinib (first compound 0.007906 µM) it was 1.19; with Trametinib + Foretinib (first compound 0.025 µM), 1.11; in the experiment with Trametinib + Foretinib (first compound 0.07906 µM), 1.2. Moreover, the relative viability with Trametinib + Foretinib (first compound 0.25 µM) was found to be 0.859.
Regarding LOU-NH91, the relative viability in the experiment with Trametinib + Decitabine (first compound 0.0025 µM) turned out to be 0.804; in the experiment with Trametinib + Decitabine (first compound 0.007906 µM) it was 0.776; with Trametinib + Decitabine (first compound 0.025 µM), 0.734; with Trametinib + Decitabine (first compound 0.07906 µM) it was 0.71; with Trametinib + Decitabine (first compound 0.25 µM) it was 0.544; in experiment [1] (first compound 0.02 µM) it was 0.578. For the same cell line, the relative viability in experiment [1] (first compound 0.06325 µM) was found to be 0.577; in experiment [1] (first compound 0.2 µM), 0.59; in experiment [1] (first compound 0.6325 µM) it was 0.601; in experiment [1] (first compound 2 µM), 0.668; in the experiment with Trametinib + Foretinib (first compound 0.0025 µM), 0.909; with Trametinib + Foretinib (first compound 0.007906 µM), 0.805. Also, the values for the relative viability with Trametinib + Foretinib (first compound 0.025 µM), in the experiment with Trametinib + Foretinib (first compound 0.07906 µM) and in the experiment with Trametinib + Foretinib (first compound 0.25 µM) were 0.733, 0.757 and 0.549, respectively.
As for LU99A, the relative viability was 0.796 with Trametinib + Decitabine (first compound 0.0025 µM); 0.813 in the experiment with Trametinib + Decitabine (first compound 0.007906 µM); 0.59 with Trametinib + Decitabine (first compound 0.025 µM); 0.665 in the experiment with Trametinib + Decitabine (first compound 0.07906 µM); 0.511 with Trametinib + Decitabine (first compound 0.25 µM); 0.986 in experiment [1] (first compound 0.02 µM). Besides, the relative viability was 0.805 in experiment [1] (first compound 0.06325 µM); 0.9 in experiment [1] (first compound 0.2 µM); 0.964 in experiment [1] (first compound 0.6325 µM); 0.85 in experiment [1] (first compound 2 µM); 0.793 with Trametinib + Foretinib (first compound 0.0025 µM); 0.817 with Trametinib + Foretinib (first compound 0.007906 µM). In addition, the relative viability amounted to 0.637 in the experiment with Trametinib + Foretinib (first compound 0.025 µM), 0.53 with Trametinib + Foretinib (first compound 0.07906 µM) and 0.438 in the experiment with Trametinib + Foretinib (first compound 0.25 µM).
Turning to LXF-289, the relative viability was 0.399 in the experiment with Trametinib + Decitabine (first compound 0.0025 µM); 0.408 in the experiment with Trametinib + Decitabine (first compound 0.007906 µM); 0.385 with Trametinib + Decitabine (first compound 0.025 µM); 0.319 with Trametinib + Decitabine (first compound 0.07906 µM); 0.391 with Trametinib + Decitabine (first compound 0.25 µM); 0.889 in experiment [1] (first compound 0.02 µM). Also, the relative viability in experiment [1] (first compound 0.06325 µM) was determined as 0.882; in experiment [1] (first compound 0.2 µM) it was 0.905; in experiment [1] (first compound 0.6325 µM) it was 0.911; in experiment [1] (first compound 2 µM), 0.884; with Trametinib + Foretinib (first compound 0.0025 µM), 0.956; with Trametinib + Foretinib (first compound 0.007906 µM) it was 0.863. For the same cell line, the relative viability turned out to be 0.77 with Trametinib + Foretinib (first compound 0.025 µM), 0.661 with Trametinib + Foretinib (first compound 0.07906 µM) and 0.595 with Trametinib + Foretinib (first compound 0.25 µM).
